Drawing on ChEMBL document CHEMBL1125055, “Tricyclic heteroaromatic systems. [1]benzopyranopyrrol-4-ones and [1]benzopyrano-1,2,3-triazol-4-ones as benzodiazepine receptor ligands. Synthesis and structure-activity relationships” (J Med Chem, 1990), this text covers IC50 and inhibition for 17 molecules.

Usually IC50 stands for the point on the concentration scale where inhibition reaches its midpoint. A lower IC50 goes with greater potency. What is called inhibition is the drop in the measured response relative to a control, in per cent.

The target in one assay is GABA-A receptor; anion channel. The assay can be described thus: Affinity to displace [3H]flunitrazepam from Benzodiazepine receptor in bovine brain membrane. In kind it is cell membranes.
In the case of `COC(=O)c1cc2c(cn1)[nH]c1ccccc12` [BETA-CCM], the IC50 was 16 nM.
Still for that read-out and setting: as for `O=c1oc2ccccc2c2c1c(-c1ccccc1)cn2-c1ccccc1`, the figure is 65 nM; as for `O=c1oc2ccccc2c2c1c(-c1ccccc1)cn2-c1ccc(Cl)cc1`, 40 nM.
Molecule `O=c1oc2ccccc2c2c1c(-c1ccccc1)cn2-c1cccc(Cl)c1` showed an IC50 of 10 nM.
For `Cn1c(=O)c2c(-c3ccccc3)nn(-c3cccc(Cl)c3)c2c2ccccc21`, the IC50 turned out to be 70 nM.
The same measure, in the same setting: to `Cc1ccc(-n2cc(-c3ccccc3)c3c(=O)oc4ccccc4c32)cc1` belongs 172 nM.
The molecule `COc1ccc(-n2cc(-c3ccccc3)c3c(=O)oc4ccccc4c32)cc1` displayed an IC50 of 62 nM.
`CN1C(=O)CN=C(c2ccccc2)c2cc(Cl)ccc21` [DIAZEPAM] gave an IC50 of 13 nM.
`Cc1cccc(-n2cc(-c3ccccc3)c3c(=O)oc4ccccc4c32)c1` had an IC50 of 25 nM.
For `Cc1cccc(-n2nc(-c3ccccc3)c3c(=O)n(C)c4ccccc4c32)c1`, the IC50 was 90 nM.
With `COc1cccc(-n2nc(C)c3c(O)nc4ccccc4c32)c1`, the IC50 is 7500 nM.
For the molecule `COc1cccc(-n2cc(-c3ccccc3)c3c(=O)oc4ccccc4c32)c1`, the IC50 came to 48 nM.
The same measure, in the same setting: as for `Cc1cc(C)cc(-n2cc(-c3ccccc3)c3c(=O)oc4ccccc4c32)c1`, the figure is 8.6 nM; as for `Cc1nn(-c2cccc(Br)c2)c2c1c(O)nc1ccccc12`, 2500 nM.

In another assay the target is GABA-A receptor; anion channel (Bos taurus) (UniProt P10063+P08220+P20237+P08219+P10064+P22300). As to the kind of experiment: Percent inhibition of [3H]flunitrazepam binding to GABA-A Benzodiazepine receptor of bovine brain membranes at 34 uM. It counts as cell membranes.
In turn, `O=c1oc2ccccc2c2c1cc(-c1ccccc1)n2-c1ccccc1` yielded an inhibition of 30%.
`Cc1cccc(-n2nnc3c(=O)oc4ccccc4c32)c1` showed an inhibition of 18%.
The same measure, in the same setting: as for `O=c1oc2ccccc2c2c1nnn2-c1ccccc1`, the figure is 0%.
